Experiments:
MDA-MB-231 [1] = assay: Induction of cell death in MDA-MB-231 by Trypan blue exclusion assay at 1 uM 4 days; assay type: functional, Homo sapiens
MDA-MB-231 [2] = assay: Induction of cell death in MDA-MB-231 by Trypan blue exclusion assay at 100 nM after 4 days; assay type: functional, Homo sapiens
MDA-MB-231 [3] = assay: Inhibition of MDA-MB-231 cell growth by WST assay; assay type: functional, cell-based; details: Homo sapiens

SMILES	Activity (MDA-MB-231 [1]) [%]	Activity (MDA-MB-231 [2]) [%]	IC50 (MDA-MB-231 [3]) [µM]
CC[C@H](NC)C(=O)N[C@H]1CCC[C@H]2CC[C@@H](C(=O)NC(c3ccccc3)c3ccccc3)N2C1=O	80	40	0.1
CC[C@@H](C(=O)N[C@H]1CCC[C@H]2CC[C@@H](C(=O)NC(c3ccccc3)c3ccccc3)N2C1=O)N(C)C			3
C[C@H](O)C(=O)N[C@H]1CCC[C@H]2CC[C@@H](C(=O)NC(c3ccccc3)c3ccccc3)N2C1=O			65
CC[C@H](N)C(=O)N[C@H]1CCC[C@H]2CC[C@@H](C(=O)NC(c3ccccc3)c3ccccc3)N2C1=O			50

Reference: ChEMBL document CHEMBL1138860, “Design, synthesis, and evaluation of a potent, cell-permeable, conformationally constrained second mitochondria derived activator of caspase (Smac) mimetic” (J Med Chem, 2006)
